We go through 2 compounds from paper PMC9208212, “Comparison of anti-cancer effects of novel protein disulphide isomerase (PDI) inhibitors in breast cancer cells characterized by high and low PDIA17 expression” (Cancer Cell International, 2022).

Some results are limits rather than exact numbers.

Series [1] deals with MDA-MB-231 cells. In words: Cancer cell adhesion to collagen type I, MDA-MB-231. Conditions: Homo sapiens. In kind it is cell-based. How it is done:
(§1) Detailed procedures for the cancer cell adhesion studies are described in Additional file 1: Methods.
(§2) Briefly, 96-well plates (Corning, Tewksbury, MA, USA) were coated with collagen type I at a concentration of 10 μg/mL (Sigma-Aldrich, Steinheim, Germany) and incubated at 4°C overnight. After 24 h, the plates were blocked with 1% bovine serum albumin (BSA) (Sigma-Aldrich, Steinheim, Germany) in DPBS buffer (Gibco, Scotland, UK) for 60 minutes at 37°C. […] Then, cancer cells were left to adhere to collagen I for 30 min at 37°C. Non-adherent cells were gently washed twice with DPBS, and attached cells were counted in nine randomly selected visual fields for each well using a CQ1 image cytometer (Yokogawa, Tokyo, Japan). Experiments were conducted twice in six technical replicates. The images were analyzed using Columbus 2.4.2 software (Perkin Elmer, Waltham, MA, USA).

The test system of series [2] is MCF-7 cells. In words: Cancer cell adhesion to collagen type I, MCF-7. In kind it is cell-based. Conditions: Homo sapiens, MCF7. Here is the method: as §1, §2
The next series concerns PDIA1. To be noted: recombinant human PDIA1, insulin/DTT turbidimetry, pH 7.6; cited from earlier work.
Series [3] in a line: MTT cytotoxicity against regular cell line BALB/3T3. In kind it is cell-based. To be noted: balb/3t3 cells, BALB/3T3 mouse fibroblasts, read-out: IC50, cytotoxicity against regular cell line. Here is the method:
(§3) The proliferation rate of the cells was measured using an MTT assay. (see Additional file 1: Methods for details). IC50 parameter was determined as previously described.
(§4) To test cytotoxicity of compounds used in this study against regular cell lines, BALB/3T3 and MCF10A cells were used, mouse fibroblast and human breast epithelial cell line, respectively.
(§5) The proliferation rate of the cells was measured using an MTT assay. The cells were seeded on 96-well plates (Sarstedt, Warsaw, Poland) at a density of MDA-MB-231, BALB/3T3 and MCF10A 1×10^4 cells/well, MCF-7 0.75×10^4 cells/well. Cells were incubated in the appropriate culture medium for 24 h before adding the tested compounds. Cells were then treated with each compound in four concentrations in the range 100–0.1 µg/mL. […] Absorbance was measured using a Bio Tek Hybrid H4 reader (BioTek Instruments, USA) at 570 nm wavelength.
(§6) Compounds at each concentration were tested in triplicate in a single experiment, and each experiment was repeated at least three times independently.

Series [4] is described as follows: MTT cytotoxicity against regular cell line MCF10A. In kind it is cell-based. Conditions: MCF10A human breast epithelial cells, read-out: IC50, cytotoxicity against regular cell line. Here is the method: as §3, §4, §5, §6
The next series deals with PDIA3. Conditions: recombinant human PDIA3, insulin/DTT turbidimetry, pH 7.6; cited from earlier work.
For series [5], the system named is MDA-MB-231 cells. In words: MTT cell viability assay, MDA-MB-231. In kind it is cell-based. To be noted: Homo sapiens; MDA-MB-231 (low PDIA17), 72 h; read-out: IC50, MTT proliferation. How it is done: as §3, §5, §6
(Formazan colour is commonly taken as a measure of viable cells.)

For series [6], the system named is MCF-7 cells. The experiment in a line: MTT cell viability assay, MCF-7. In kind it is cell-based. To be noted: Homo sapiens, MCF7; MCF-7 (high PDIA17), 72 h; read-out: IC50, MTT proliferation. How it is done:
as §3, §5, §6

The target of another series is T1, PDIA17 (Homo sapiens, UniProt O95994).
T1 construct: PDIA17 (recombinant protein ab64013, human, full length, E.coli, Abcam, Cambridge); purchased Abcam ab64013; host or cells: E. coli
T1 sequence (O95994 21-175): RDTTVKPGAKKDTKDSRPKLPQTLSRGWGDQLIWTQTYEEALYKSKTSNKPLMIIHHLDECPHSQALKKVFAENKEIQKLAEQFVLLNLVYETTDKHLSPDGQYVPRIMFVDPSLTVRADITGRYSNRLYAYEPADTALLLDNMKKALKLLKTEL
In words: Insulin reduction turbidimetry assay, PDIA17. In kind it is biochemical. How it is done:
The PDI inhibitor activity towards PDIA1, PDIA3 and PDIA17 was assessed as an increase in disulphide bond reduction in human insulin in the presence of DL-dithiotreitol (DTT) causing aggregation of its β-chain, analyzed by turbidimetry as presented earlier by Kalvins et al. and Chlopicki et al. (see Additional file 1: Methods for more details).
The PDI inhibitors’ activity towards PDIA1, PDIA3 and PDIA17 was assessed as an increase in disulphide bond reduction in human insulin in the presence of DTT causing aggregation of its β-chain, analyzed by turbidimetry as presented earlier by Kalvins et al. 2021 and Chlopicki et al., 2021. Briefly, the assay mixture for 96-well plates was prepared by dissolving in […] phosphate buffer (pH 7.6 for activity testing of PDIA1, PDIA3 and pH 8.0 for PDIA17), 6 µg/ml (96 nM) of PDIA1 (recombinant protein MBS9422429, human, full length, 18-508aa His-tag, E.coli, MyBioSource, San Diego, CA, USA), PDIA3 (recombinant protein MBS203583, 25-505aa, human, His-tag, E.coli, MyBioSource, San Diego, CA, USA) or PDIA17 (recombinant protein ab64013, human, full length, E.coli, Abcam, Cambridge), 2 mM EDTA and 0.08 mM DTT (D9779 Sigma-Aldrich, Steinheim, Germany). Stock solutions of C-3353, C-3380, C-3389 and C-3399 were freshly prepared in dimethyl sulfoxide (DMSO) and subsequently diluted to keep the final DMSO concentration in the assay mixture below 1%. Calculated amounts of compounds solutions were added into test wells, and the reaction was started by the addition of insulin (insulin 91077C, human recombinant; Sigma-Aldrich, Steinheim, Germany) and 0.08 mM of DTT. The final concentration of insulin and DTT in the assay mixture was 0.15 and 0.16 mM, respectively. The reaction rate was monitored at 650 nm on a Microplate Reader Infinite M1000 PRO for 60 minutes at 37°C. Turbidity values for the wells containing only the PDI isoform tested (background values) were subtracted from the turbidity values of the wells containing the tested PDI isoform and selected inhibitors. […]

The test system of series [7] is MCF-7 cells. In words: ECIS wound healing migration assay, MCF-7. Conditions: Homo sapiens, MCF7, tested 10, 30, 100 µM, read-out: Concentration substantially reducing migration rate (ECIS wounding assay). Format: cell-based. The source says:
(§7) The migration of MCF-7 and MDA-MB-231 cells was monitored using real-time quantitative wound healing assays and 96W1E + ECIS arrays (Applied Biophysics, Troy, NY, USA) according to the procedure reported by Stojak et al. with minor modifications and C-3353 inhibitor as a tested compound. Detailed procedures for the ECIS studies are described in Additional file 1: Methods.
(§8) The migration of MCF-7 and MDA-MB-231 cells was monitored using real-time quantitative wound healing assays and 96W1E+ ECIS arrays (Applied Biophysics, Troy, NY, USA) according to the procedure reported by Stojak et al. (2020) with minor modifications. To this end, MDA-MB-231 cells were seeded at a density of 3 × 10^4 per well and MCF-7 cells at a density of 6 × 10^4 cells per well. Before the cell seeding procedure, the 96W1E+ plate was pretreated with 10 mM L-cysteine (Sigma-Aldrich, Steinheim, Germany) according to the manufacturer’s instruction. Immediately after cell seeding, resistance (Ω), capacitance (µF) and impedance (Ω) measurements were initiated at frequencies from 250 Hz to 64 kHz (250, 500, 1000, 2000, 4000, 8000, 16,000, 32,000 and 64,000 Hz) using the multiple frequency time mode. […] The healing process was measured continuously as cells migrated onto the electrode. The area under the curve (AUC) was quantified and normalized to the untreated control. […]

For series [8], the system named is MDA-MB-231 cells. The experiment in a line: ECIS wound healing migration assay, MDA-MB-231. Format: cell-based. To be noted: Homo sapiens, tested 10, 30, 100 µM, read-out: Concentration effectively inhibiting migration (ECIS wounding assay).
Source text: as §7, §8

In turn, `COC(=O)C1CN1S(=O)(=O)c1ccc2c(N(C)C)cccc2c1` (stereo not drawn) [Inhibitor C-3399] returned an activity at 10 µM in the series on MDA-MB-231 cells [1] (MDA-MB-231, inhibitor 10 µM) of about 75%. In the series on MCF-7 cells [2] (MCF-7, inhibitor 3 µM), this compound came in with an activity at 3 µM of about 50%. Moreover, the IC50 was 0.12 µM with PDIA1; 4 µM in the series on PDIA3; 8.69 ± 0.89 µM in the series on MDA-MB-231 cells [5]; 11.1 ± 0.78 µM in the series on MCF-7 cells [6]; over 200 µM against PDIA17. Moreover, the CC50 at 72 h in [3] turned out to be 38.2 ± 10.3 µM; in series [4], 17.9 ± 1.15 µM. Further, the “IC50 PDIA3” value with PDIA3 is recorded as “low micromolar range”. In addition, at PDIA17 (recombinant human PDIA17, insulin/DTT turbidimetry, pH 8.0, n.a. = not active in range of concentrations used), the “IC50 PDIA17” value is “not effective”.
In the case of `COC(=O)C1CN1S(=O)(=O)c1ccc(F)cc1F` (stereo not drawn) [Inhibitor C-3353], the minimal effective concentration is 50 µM with MDA-MB-231 cells [1] (MDA-MB-231, read-out: Concentration inhibiting adhesion to collagen); 3 µM in the series with MCF-7 cells [2] (MCF-7, read-out: Concentration inhibiting adhesion to collagen); at least 30 µM in the series with MCF-7 cells [7]; 100 µM with MDA-MB-231 cells [8]. Further, the IC50 in the series on PDIA1 is 5 µM; with PDIA3 it was 143 µM; in the series on MDA-MB-231 cells [5] it was 87.4 ± 9.42 µM; in the series on MCF-7 cells [6] it was 22.5 ± 6.42 µM; on PDIA17, 20.1 µM. Also, in the series with PDIA1, the “IC50 PDIA1” value is given as “inhibitory effect on PDIA1”. Further, the CC50 at 72 h in series [3] is over 360 µM; in series [4] it was 75.6 ± 4.05 µM. In addition, the “IC50 PDIA3” value in the series with PDIA3 is reported as “not on PDIA3”.
